Reference: patent US8889705B2, “Noscapine analogs and their use in treating cancers” (Emory University, priority 2007, dated 2014)

Columns and labels:
CEM cells [1] = assay: In vitro cell proliferation MTS assay; format: cell-based; settings: Homo sapiens, CCRF-CEM, 72 hours
Method: (§1) Suspension cells (CEM, CEMNLB100 and CEM/VM-1-5) were cultured in RPMI-1640 media containing 10% FBS and then seeded into 96-well plates at a density of 5×10^3 cells per well and were treated with increasing gradient concentrations of 9-nitro-nos for 72 hours. Measurement of cell proliferation was performed colorimetrically by 3-(4,5-dimethylthiazol-2-yl)-5-(3-carboxymethoxyphenyl)-2-(4-sulphophenyl)-2H-tetrazolium, inner salt (MTS) assay, using the CellTiter96 AQueous One Solution Reagent (Promega, Madison, Wis.). Cells were exposed to MTS for 3 hours and absorbance was measured using a microplate reader (Molecular Devices, Sunnyvale, Calif.) at an optical density (OD) of 490 nm. The percentage of cell survival as a function of drug concentration for both the assays was then plotted to determine the IC50 value, which stands for the drug concentration needed to prevent cell proliferation by 50%.
as §1, with “(CEM)” for “(CEM, CEMNLB100 and CEM/VM-1-5)”, “were” for “were cultured in RPMI-1640 media containing 10% FBS and then”, “increasing” for “increasing gradient”, “all halogenated analogs” for “9-nitro-nos”

1A9 cells = assay: Cell cycle analysis (propidium iodide, flow cytometry); format: cell-based, human; settings: 1A9, 50 μM
Method: (§2) The flow cytometric evaluation of the cell cycle status was performed as described previously (Zhou et al., 2003). Briefly, 2×10^6 cells were centrifuged, washed twice with ice-cold PBS, and fixed in 70% ethanol. Tubes containing the cell pellets were stored at 4° C. for at least 24 hours. Cells were then centrifuged at 1000×g for 10 min and the supernatant was discarded. The pellets were washed twice with 5 ml of PBS and then stained with 0.5 ml of propidium iodide (0.1% in 0.6% Triton-X in PBS) and 0.5 ml of RNase A (2 mg/ml) for 45 minutes in dark. Samples were then analyzed on a FACSCalibur flow cytometer (Beckman Coulter Inc., Fullerton, Calif.).

1A9/PTX22 cells = assay: as above; format: cell-based, human; settings: 1A9/PTX22, 50 μM
Method: as §2

CEM cells [2] = assay: as above; format: cell-based, human; settings: 25 μM
Method: as §2

CEM/VLB100 cells = assay: as above; format: cell-based, human; settings: CEM/VLB100, 25 μM
Method: as §2

CEM/VM-1-5 cells = assay: as above; format: cell-based, human; settings: CEM/VM-1-5, 25 μM
Method: as §2

[3] = tested on: caspase-3 activity in CEM, CEM/VLB100, CEM/VM-1-5, 1A9 and 1A9/PTX22 cells; assay: Determination of caspase-3 activity (Z-DEVD-aminoluciferin); format: cell-based, human; settings: 72 hours; 25 μM (CEM lines) or 50 μM (1A9 lines)
Method: Determination of caspase-3 activity: 10^6 cells were incubated with 25 μM 9-nitro-nos (CEM, CEMNLB100 and CEM/VM-1-5) or 50 μM 9-nitro-nos (1A9 and 1A9/PTX22) for 0, 24, 48 and 72 hours. Caspase-3 activity was then measured by the cleavage of the small synthetic substrate Z-DEVD-aminoluciferin (CaspaseGlo™ 3/7 Assay System Kit, Promega, Madison, Wis.) that becomes luminogenic upon cleavage. The luminescent signal, which is directly proportional to the amount of caspase-3 activity, was measured in a luminescence plate reader.

SMILES: COc1ccc2c(c1OC)C(=O)O[C@@H]2[C@H]1c2c(c([N+](=O)[O-])c3c(c2OC)OCO3)CCN1C [9-nitro-nos, (S)-6,7-dimethoxy-3-((R)-4-methoxy-6-methyl-9-nitro-5,6,7,8-tetrahydro-[1,3]dioxolo[4,5-g]isoquinolin-5-yl)isobenzofuran-1(3H)-one]
- IC50 (CEM cells [1]): 10 µM
- G0/G1 (1A9 cells; 0 h): 50.0%
- G2/M (1A9 cells; 0 h): 21.2%
- S (1A9 cells; 0 h): 21.8%
- Sub-G1 (1A9 cells; 0 h): 0.7%
- G0/G1 (1A9 cells; 24 h): 30.6%
- G2/M (1A9 cells; 24 h): 34.2%
- S (1A9 cells; 24 h): 14.3%
- Sub-G1 (1A9 cells; 24 h): 12.0%
- G0/G1 (1A9 cells; 48 h): 28.6%
- G2/M (1A9 cells; 48 h): 17.2%
- S (1A9 cells; 48 h): 10.6%
- Sub-G1 (1A9 cells; 48 h): 38.0%
- G0/G1 (1A9 cells; 72 h): 16.7%
- G2/M (1A9 cells; 72 h): 9.0%
- S (1A9 cells; 72 h): 9.6%
- Sub-G1 (1A9 cells; 72 h): 56.3%
- G0/G1 (1A9/PTX22 cells; 0 h): 57.0%
- G2/M (1A9/PTX22 cells; 0 h): 20.4%
- S (1A9/PTX22 cells; 0 h): 8.8%
- Sub-G1 (1A9/PTX22 cells; 0 h): 3.5%
- G0/G1 (1A9/PTX22 cells; 24 h): 27.3%
- G2/M (1A9/PTX22 cells; 24 h): 31.4%
- S (1A9/PTX22 cells; 24 h): 4.7%
- Sub-G1 (1A9/PTX22 cells; 24 h): 30.0%
- G0/G1 (1A9/PTX22 cells; 48 h): 5.9%
- G2/M (1A9/PTX22 cells; 48 h): 44.3%
- S (1A9/PTX22 cells; 48 h): 3.4%
- Sub-G1 (1A9/PTX22 cells; 48 h): 44.6%
- G0/G1 (1A9/PTX22 cells; 72 h): 14.1%
- G2/M (1A9/PTX22 cells; 72 h): 13.7%
- S (1A9/PTX22 cells; 72 h): 5.7%
- Sub-G1 (1A9/PTX22 cells; 72 h): 59.0%
- G0/G1 (CEM cells [2]; 0 h): 45.5%
- G2/M (CEM cells [2]; 0 h): 20.9%
- S (CEM cells [2]; 0 h): 25.0%
- Sub-G1 (CEM cells [2]; 0 h): 0.25%
- G0/G1 (CEM cells [2]; 24 h): 24.8%
- G2/M (CEM cells [2]; 24 h): 34.2%
- S (CEM cells [2]; 24 h): 10.0%
- Sub-G1 (CEM cells [2]; 24 h): 6.5%
- G0/G1 (CEM cells [2]; 48 h): 19.7%
- G2/M (CEM cells [2]; 48 h): 40.0%
- S (CEM cells [2]; 48 h): 8.1%
- Sub-G1 (CEM cells [2]; 48 h): 23.8%
- G0/G1 (CEM cells [2]; 72 h): 13.9%
- G2/M (CEM cells [2]; 72 h): 16.9%
- S (CEM cells [2]; 72 h): 8.9%
- Sub-G1 (CEM cells [2]; 72 h): 44.3%
- G0/G1 (CEM/VLB100 cells; 0 h): 46.9%
- G2/M (CEM/VLB100 cells; 0 h): 25.7%
- S (CEM/VLB100 cells; 0 h): 17.6%
- Sub-G1 (CEM/VLB100 cells; 0 h): 3.6%
- G0/G1 (CEM/VLB100 cells; 24 h): 25.5%
- G2/M (CEM/VLB100 cells; 24 h): 36.0%
- S (CEM/VLB100 cells; 24 h): 17.7%
- Sub-G1 (CEM/VLB100 cells; 24 h): 14.8%
- G0/G1 (CEM/VLB100 cells; 48 h): 23.7%
- G2/M (CEM/VLB100 cells; 48 h): 30.2%
- S (CEM/VLB100 cells; 48 h): 9.3%
- Sub-G1 (CEM/VLB100 cells; 48 h): 30.7%
- G0/G1 (CEM/VLB100 cells; 72 h): 8.7%
- G2/M (CEM/VLB100 cells; 72 h): 12.5%
- S (CEM/VLB100 cells; 72 h): 4.5%
- Sub-G1 (CEM/VLB100 cells; 72 h): 56.1%
- G0/G1 (CEM/VM-1-5 cells; 0 h): 36.0%
- G2/M (CEM/VM-1-5 cells; 0 h): 30.7%
- S (CEM/VM-1-5 cells; 0 h): 19.4%
- Sub-G1 (CEM/VM-1-5 cells; 0 h): 3.4%
- G0/G1 (CEM/VM-1-5 cells; 24 h): 25.4%
- G2/M (CEM/VM-1-5 cells; 24 h): 41.0%
- S (CEM/VM-1-5 cells; 24 h): 13.0%
- Sub-G1 (CEM/VM-1-5 cells; 24 h): 18.8%
- G0/G1 (CEM/VM-1-5 cells; 48 h): 13.7%
- G2/M (CEM/VM-1-5 cells; 48 h): 15.0%
- S (CEM/VM-1-5 cells; 48 h): 11.0%
- Sub-G1 (CEM/VM-1-5 cells; 48 h): 58.0%
- G0/G1 (CEM/VM-1-5 cells; 72 h): 10.5%
- G2/M (CEM/VM-1-5 cells; 72 h): 12.2%
- S (CEM/VM-1-5 cells; 72 h): 8.7%
- Sub-G1 (CEM/VM-1-5 cells; 72 h): 63.0%
- activation of caspase-3 [3]: 10-20 fold
